{
  "source": "patent US20220088016A1",
  "about": "“CANCER TREATMENT USING MULTI-TARGETED KINASE INHIBITOR IN COMBINATION OF PROTEIN KINASE BIOMARKERS” (ZHEJIANG CROWNMAB BIOTECH CO. LTD., priority 2019, published 2022)",
  "assay_in_all_cases": "Kinase profiling",
  "format_in_all_cases": "binding",
  "key": {"BTK": {"target": "BTK (Homo sapiens, UniProt Q06187)", "settings": "read-out: % Ctrl @ 1000 nM"}, "PIKFYVE": {"target": "PIKFYVE (Homo sapiens, UniProt Q9Y2I7)", "settings": "read-out: % Ctrl @ 1000 nM"}, "NDR1": {"target": "T1, NDR1 (Homo sapiens, UniProt Q15208)", "T1 construct": "T7 phage fusion (said for most assays); made in house", "settings": "read-out: % Ctrl @ 1000 nM"}, "EPHB1": {"target": "EPHB1 (Homo sapiens, UniProt P54762)", "settings": "read-out: % Ctrl @ 1000 nM"}, "MET": {"target": "T2, MET (Homo sapiens, UniProt P08581)", "T2 construct": "T7 phage fusion (stated for most kinases of the panel only); made in house; host or cells: T7 phage in E. coli (BL21-derived) or HEK-293 cells", "settings": "read-out: % Ctrl @ 1000 nM"}, "WNK1": {"target": "WNK1 (Homo sapiens, UniProt Q9H4A3)", "settings": "read-out: % Ctrl @ 1000 nM"}, "LZK": {"target": "LZK (Homo sapiens, UniProt O43283)", "settings": "read-out: % Ctrl @ 1000 nM"}, "PIK3C2B": {"target": "PIK3C2B (Homo sapiens, UniProt O00750)", "sequence (O00750 whole entry)": "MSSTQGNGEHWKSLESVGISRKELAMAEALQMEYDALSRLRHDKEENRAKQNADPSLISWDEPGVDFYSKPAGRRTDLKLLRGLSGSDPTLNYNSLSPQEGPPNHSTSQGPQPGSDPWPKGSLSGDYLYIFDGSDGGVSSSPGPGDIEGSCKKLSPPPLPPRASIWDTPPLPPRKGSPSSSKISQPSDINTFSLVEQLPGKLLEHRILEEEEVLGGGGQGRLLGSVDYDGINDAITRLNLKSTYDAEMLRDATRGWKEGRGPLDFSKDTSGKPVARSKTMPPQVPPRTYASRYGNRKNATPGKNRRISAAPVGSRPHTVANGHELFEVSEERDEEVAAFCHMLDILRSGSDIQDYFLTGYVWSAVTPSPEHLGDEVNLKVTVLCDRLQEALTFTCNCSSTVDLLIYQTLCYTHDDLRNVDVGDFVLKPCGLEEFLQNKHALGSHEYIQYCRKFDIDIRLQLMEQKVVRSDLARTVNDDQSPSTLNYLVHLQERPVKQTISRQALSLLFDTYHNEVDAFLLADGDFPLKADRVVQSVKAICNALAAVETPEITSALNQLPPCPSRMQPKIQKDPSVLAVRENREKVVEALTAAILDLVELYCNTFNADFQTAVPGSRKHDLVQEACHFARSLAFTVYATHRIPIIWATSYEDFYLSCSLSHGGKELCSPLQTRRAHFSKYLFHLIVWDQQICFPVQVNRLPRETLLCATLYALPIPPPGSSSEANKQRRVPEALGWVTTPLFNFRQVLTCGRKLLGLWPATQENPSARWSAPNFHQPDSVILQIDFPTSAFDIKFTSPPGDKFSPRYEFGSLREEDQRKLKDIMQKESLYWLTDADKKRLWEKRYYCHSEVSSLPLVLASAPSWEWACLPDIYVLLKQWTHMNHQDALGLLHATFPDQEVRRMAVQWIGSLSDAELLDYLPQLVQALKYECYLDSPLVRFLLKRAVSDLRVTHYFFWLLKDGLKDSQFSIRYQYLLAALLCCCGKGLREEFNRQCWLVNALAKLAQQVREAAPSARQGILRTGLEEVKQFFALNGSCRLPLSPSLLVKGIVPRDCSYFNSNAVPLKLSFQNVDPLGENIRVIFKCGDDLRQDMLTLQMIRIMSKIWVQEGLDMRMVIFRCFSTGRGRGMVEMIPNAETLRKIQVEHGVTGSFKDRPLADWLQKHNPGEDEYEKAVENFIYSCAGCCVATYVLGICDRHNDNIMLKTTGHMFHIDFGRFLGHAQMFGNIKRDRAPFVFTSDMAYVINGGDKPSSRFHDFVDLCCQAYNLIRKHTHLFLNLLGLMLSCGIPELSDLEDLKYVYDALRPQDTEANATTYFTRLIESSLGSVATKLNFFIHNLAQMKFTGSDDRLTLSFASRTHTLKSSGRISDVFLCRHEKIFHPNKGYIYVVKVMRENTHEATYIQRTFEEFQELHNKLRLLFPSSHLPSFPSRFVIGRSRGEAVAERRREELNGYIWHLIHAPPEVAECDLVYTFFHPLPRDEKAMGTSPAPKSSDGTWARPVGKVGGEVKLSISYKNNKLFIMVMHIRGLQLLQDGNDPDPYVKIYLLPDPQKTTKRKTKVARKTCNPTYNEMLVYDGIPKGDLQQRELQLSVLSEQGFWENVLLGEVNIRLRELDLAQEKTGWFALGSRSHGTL", "settings": "read-out: % Ctrl @ 1000 nM"}, "CSNK2A2": {"target": "CSNK2A2 (Homo sapiens, UniProt P19784)", "settings": "read-out: % Ctrl @ 1000 nM"}, "[1]": {"target": "TYK2 (JH1domain-catalytic) (Homo sapiens, UniProt P29597)", "settings": "read-out: % Ctrl @ 1000 nM"}, "PRKCE": {"target": "PRKCE (Homo sapiens, UniProt Q02156)", "sequence (Q02156 whole entry)": "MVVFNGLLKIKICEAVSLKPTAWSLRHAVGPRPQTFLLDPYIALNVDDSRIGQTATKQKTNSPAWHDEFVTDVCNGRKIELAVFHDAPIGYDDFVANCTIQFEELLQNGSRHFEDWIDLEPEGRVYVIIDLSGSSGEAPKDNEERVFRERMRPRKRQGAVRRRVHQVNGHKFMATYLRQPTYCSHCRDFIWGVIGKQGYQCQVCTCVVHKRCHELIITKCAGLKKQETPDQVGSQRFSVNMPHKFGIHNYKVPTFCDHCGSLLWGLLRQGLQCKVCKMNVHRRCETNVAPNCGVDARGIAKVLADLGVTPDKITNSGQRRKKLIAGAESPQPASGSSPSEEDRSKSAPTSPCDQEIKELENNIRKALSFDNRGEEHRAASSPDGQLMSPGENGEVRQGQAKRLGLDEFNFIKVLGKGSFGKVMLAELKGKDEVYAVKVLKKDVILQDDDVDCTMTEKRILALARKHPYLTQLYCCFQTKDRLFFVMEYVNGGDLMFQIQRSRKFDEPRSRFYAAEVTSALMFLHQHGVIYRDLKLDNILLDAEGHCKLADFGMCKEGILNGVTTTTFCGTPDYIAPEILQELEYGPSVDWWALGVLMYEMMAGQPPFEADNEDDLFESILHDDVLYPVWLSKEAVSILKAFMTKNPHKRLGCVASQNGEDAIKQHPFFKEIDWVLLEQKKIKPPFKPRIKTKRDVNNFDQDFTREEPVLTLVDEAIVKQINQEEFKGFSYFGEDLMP", "settings": "read-out: % Ctrl @ 1000 nM"}, "ARK5": {"target": "ARK5 (Homo sapiens, UniProt O60285)", "settings": "read-out: % Ctrl @ 1000 nM"}, "MYO3B": {"target": "T3, MYO3B (Homo sapiens, UniProt Q8WXR4)", "T3 construct": "T7 phage fusion (said for most assays); made in house", "settings": "read-out: % Ctrl @ 1000 nM"}, "MEK2": {"target": "T4, MEK2 (Homo sapiens, UniProt P36507)", "T4 construct": "T7 phage fusion (stated for most kinases of the panel only); made in house; host or cells: T7 phage in E. coli (BL21-derived) or HEK-293 cells", "settings": "read-out: % Ctrl @ 1000 nM"}, "FYN": {"target": "FYN (Homo sapiens, UniProt P06241)", "settings": "read-out: % Ctrl @ 1000 nM"}, "KIT (L576P)": {"target": "KIT (L576P) (Homo sapiens, UniProt P10721, L576P)", "settings": "read-out: % Ctrl @ 1000 nM"}, "MARK4": {"target": "MARK4 (Homo sapiens, UniProt Q96L34)", "settings": "read-out: % Ctrl @ 1000 nM"}, "[2]": {"target": "ABL1 (F317I)-phosphorylated (Homo sapiens, UniProt P00519, F317I)", "settings": "read-out: % Ctrl @ 1000 nM"}, "PRP4": {"target": "PRP4 (Homo sapiens, UniProt Q13523)", "settings": "read-out: % Ctrl @ 1000 nM"}, "FLT3 (ITD, F691L)": {"test_system": "FLT3 (ITD, F691L)"}, "TLK1": {"target": "TLK1 (Homo sapiens, UniProt Q9UKI8)", "settings": "read-out: % Ctrl @ 1000 nM"}, "ERN1": {"target": "ERN1 (Homo sapiens, UniProt O75460)", "sequence (O75460 19-977)": "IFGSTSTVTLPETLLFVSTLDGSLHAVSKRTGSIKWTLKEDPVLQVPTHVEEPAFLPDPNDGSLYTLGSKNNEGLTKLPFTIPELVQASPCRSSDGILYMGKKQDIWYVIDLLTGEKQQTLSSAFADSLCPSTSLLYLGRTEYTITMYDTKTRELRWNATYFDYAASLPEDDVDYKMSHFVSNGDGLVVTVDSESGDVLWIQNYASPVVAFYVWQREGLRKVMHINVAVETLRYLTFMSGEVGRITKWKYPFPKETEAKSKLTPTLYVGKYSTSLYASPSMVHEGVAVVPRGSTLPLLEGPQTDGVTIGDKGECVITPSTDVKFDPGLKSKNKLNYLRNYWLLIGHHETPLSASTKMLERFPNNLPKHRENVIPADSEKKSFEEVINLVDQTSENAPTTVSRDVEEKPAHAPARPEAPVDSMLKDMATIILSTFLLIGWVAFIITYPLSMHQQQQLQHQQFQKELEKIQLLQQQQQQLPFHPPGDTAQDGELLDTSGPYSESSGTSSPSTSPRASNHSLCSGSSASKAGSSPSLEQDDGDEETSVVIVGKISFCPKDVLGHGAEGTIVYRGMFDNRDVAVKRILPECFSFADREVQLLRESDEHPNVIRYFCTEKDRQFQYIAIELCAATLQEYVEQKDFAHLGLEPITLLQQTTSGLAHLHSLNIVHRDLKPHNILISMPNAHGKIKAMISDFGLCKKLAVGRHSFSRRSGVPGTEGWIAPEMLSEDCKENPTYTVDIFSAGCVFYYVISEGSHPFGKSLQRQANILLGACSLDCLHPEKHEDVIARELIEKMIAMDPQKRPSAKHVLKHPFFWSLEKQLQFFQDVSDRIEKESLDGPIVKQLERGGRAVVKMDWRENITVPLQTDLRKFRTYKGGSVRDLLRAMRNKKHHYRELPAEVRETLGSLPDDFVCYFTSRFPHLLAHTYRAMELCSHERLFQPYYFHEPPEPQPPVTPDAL", "settings": "read-out: % Ctrl @ 1000 nM"}, "CDK11": {"target": "CDK11 (Homo sapiens, UniProt Q9BWU1)", "settings": "read-out: % Ctrl @ 1000 nM"}, "MEK5": {"target": "T5, MEK5 (Homo sapiens, UniProt Q13163)", "T5 construct": "T7 phage fusion (stated for most kinases of the panel only); made in house; host or cells: T7 phage in E. coli (BL21-derived) or HEK-293 cells", "settings": "read-out: % Ctrl @ 1000 nM"}, "MAP3K15": {"target": "MAP3K15 (Homo sapiens, UniProt Q6ZN16)", "settings": "read-out: % Ctrl @ 1000 nM"}, "ROS1": {"target": "ROS1 (Homo sapiens, UniProt P08922)", "settings": "read-out: % Ctrl @ 1000 nM"}, "TLK2": {"target": "TLK2 (Homo sapiens, UniProt Q86UE8)", "settings": "read-out: % Ctrl @ 1000 nM"}, "HIPK1": {"target": "HIPK1 (Homo sapiens, UniProt Q86Z02)", "settings": "read-out: % Ctrl @ 1000 nM"}, "[3]": {"target": "RPS6KA5 (Kin.Dom.2-C-terminal) (Homo sapiens, UniProt O75582)", "sequence (O75582 426-687 limits assumed)": "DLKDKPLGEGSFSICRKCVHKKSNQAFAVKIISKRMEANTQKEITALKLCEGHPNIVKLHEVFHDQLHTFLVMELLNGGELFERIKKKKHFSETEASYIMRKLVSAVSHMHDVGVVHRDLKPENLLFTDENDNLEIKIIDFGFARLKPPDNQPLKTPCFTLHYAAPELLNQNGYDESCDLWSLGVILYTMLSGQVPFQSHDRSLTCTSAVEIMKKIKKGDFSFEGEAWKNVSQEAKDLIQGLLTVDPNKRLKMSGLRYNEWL", "settings": "read-out: % Ctrl @ 1000 nM"}, "CSF1R-autoinhibited": {"target": "CSF1R-autoinhibited (Homo sapiens, UniProt P07333)", "sequence (P07333 20-972)": "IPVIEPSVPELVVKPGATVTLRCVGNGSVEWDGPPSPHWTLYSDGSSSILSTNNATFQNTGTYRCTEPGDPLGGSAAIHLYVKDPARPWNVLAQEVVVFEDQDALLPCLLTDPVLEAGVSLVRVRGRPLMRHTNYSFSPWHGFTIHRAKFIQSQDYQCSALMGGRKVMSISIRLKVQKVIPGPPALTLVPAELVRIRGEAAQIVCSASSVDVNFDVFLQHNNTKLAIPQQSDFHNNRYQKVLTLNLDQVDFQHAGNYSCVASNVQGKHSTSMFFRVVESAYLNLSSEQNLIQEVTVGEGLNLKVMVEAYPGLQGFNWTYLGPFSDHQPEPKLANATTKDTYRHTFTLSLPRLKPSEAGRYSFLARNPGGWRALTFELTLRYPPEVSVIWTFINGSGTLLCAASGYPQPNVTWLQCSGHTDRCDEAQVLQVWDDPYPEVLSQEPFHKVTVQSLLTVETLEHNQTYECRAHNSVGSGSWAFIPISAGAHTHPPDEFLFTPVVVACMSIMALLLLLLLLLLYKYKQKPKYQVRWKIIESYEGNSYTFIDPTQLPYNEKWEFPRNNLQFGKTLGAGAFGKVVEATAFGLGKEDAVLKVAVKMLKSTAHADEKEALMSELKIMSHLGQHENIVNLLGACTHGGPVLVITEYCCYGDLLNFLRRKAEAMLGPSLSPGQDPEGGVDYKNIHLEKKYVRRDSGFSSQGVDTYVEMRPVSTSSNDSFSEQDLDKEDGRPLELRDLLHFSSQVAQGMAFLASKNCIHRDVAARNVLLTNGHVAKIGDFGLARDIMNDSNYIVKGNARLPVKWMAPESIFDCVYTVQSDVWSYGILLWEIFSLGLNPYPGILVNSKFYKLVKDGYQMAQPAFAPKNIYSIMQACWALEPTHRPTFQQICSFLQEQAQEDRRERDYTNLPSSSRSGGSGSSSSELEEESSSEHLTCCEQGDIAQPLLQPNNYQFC", "settings": "read-out: % Ctrl @ 1000 nM"}, "YANK3": {"target": "YANK3 (Homo sapiens, UniProt Q86UX6)", "settings": "read-out: % Ctrl @ 1000 nM"}, "PKN2": {"target": "PKN2 (Homo sapiens, UniProt Q16513)", "settings": "read-out: % Ctrl @ 1000 nM"}, "[4]": {"target": "RSK2 (Kin.Dom.1-N-terminal) (Homo sapiens, UniProt P51812)", "settings": "read-out: % Ctrl @ 1000 nM"}, "EPHA4": {"target": "EPHA4 (Homo sapiens, UniProt P54764)", "settings": "read-out: % Ctrl @ 1000 nM"}, "AURKB": {"target": "AURKB (Homo sapiens, UniProt Q96GD4)", "sequence (Q96GD4 whole entry)": "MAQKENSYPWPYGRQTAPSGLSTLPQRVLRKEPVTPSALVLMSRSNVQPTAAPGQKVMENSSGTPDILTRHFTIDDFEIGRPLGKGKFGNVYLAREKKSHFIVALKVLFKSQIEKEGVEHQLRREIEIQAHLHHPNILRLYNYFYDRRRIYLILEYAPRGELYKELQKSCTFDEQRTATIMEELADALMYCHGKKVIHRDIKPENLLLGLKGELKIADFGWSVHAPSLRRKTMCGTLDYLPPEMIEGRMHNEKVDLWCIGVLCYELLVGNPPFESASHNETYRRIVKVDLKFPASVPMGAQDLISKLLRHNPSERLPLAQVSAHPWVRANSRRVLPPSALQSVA", "settings": "read-out: % Ctrl @ 1000 nM"}, "NEK11": {"target": "T6, NEK11 (Homo sapiens, UniProt Q8NG66)", "T6 construct": "T7 phage fusion (said for most assays); made in house", "settings": "read-out: % Ctrl @ 1000 nM"}, "EGFR (L858R)": {"target": "EGFR (L858R) (Homo sapiens, UniProt P00533, L858R)", "settings": "read-out: % Ctrl @ 1000 nM"}, "[5]": {"target": "ABL1 (Q252H)-phosphorylated (Homo sapiens, UniProt P00519, Q252H)", "settings": "read-out: % Ctrl @ 1000 nM"}, "[6]": {"target": "ABL1 (F317I)-nonphosphorylated (Homo sapiens, UniProt P00519, F317I)", "settings": "read-out: % Ctrl @ 1000 nM"}},
  "data": [
    {"smiles": "Cc1cc(Oc2cc(NC(=O)C3CC3)ncn2)ccc1NC(=O)Nc1ccc(Cl)c(C(F)(F)F)c1", "note": "[CBT-102]", "values": [
      {"measurement": "remaining activity at 1 µM", "setting": "BTK", "result": 77, "unit": "%"},
      {"measurement": "remaining activity at 1 µM", "setting": "PIKFYVE", "result": 91, "unit": "%"},
      {"measurement": "remaining activity at 1 µM", "setting": "NDR1", "result": 94, "unit": "%"},
      {"measurement": "remaining activity at 1 µM", "setting": "EPHB1", "result": 38, "unit": "%"},
      {"measurement": "remaining activity at 1 µM", "setting": "MET", "result": 80, "unit": "%"},
      {"measurement": "remaining activity at 1 µM", "setting": "WNK1", "result": 87, "unit": "%"},
      {"measurement": "remaining activity at 1 µM", "setting": "LZK", "result": 97, "unit": "%"},
      {"measurement": "remaining activity at 1 µM", "setting": "PIK3C2B", "result": 100, "unit": "%"},
      {"measurement": "remaining activity at 1 µM", "setting": "CSNK2A2", "result": 100, "unit": "%"},
      {"measurement": "remaining activity at 1 µM", "setting": "[1]", "result": 5.6, "unit": "%"},
      {"measurement": "remaining activity at 1 µM", "setting": "PRKCE", "result": 99, "unit": "%"},
      {"measurement": "remaining activity at 1 µM", "setting": "ARK5", "result": 100, "unit": "%"},
      {"measurement": "remaining activity at 1 µM", "setting": "MYO3B", "result": 90, "unit": "%"},
      {"measurement": "remaining activity at 1 µM", "setting": "MEK2", "result": 76, "unit": "%"},
      {"measurement": "remaining activity at 1 µM", "setting": "FYN", "result": 76, "unit": "%"},
      {"measurement": "remaining activity at 1 µM", "setting": "KIT (L576P)", "result": 0, "unit": "%"},
      {"measurement": "remaining activity at 1 µM", "setting": "MARK4", "result": 100, "unit": "%"},
      {"measurement": "remaining activity at 1 µM", "setting": "[2]", "result": 95, "unit": "%"},
      {"measurement": "remaining activity at 1 µM", "setting": "PRP4", "result": 95, "unit": "%"},
      {"measurement": "% Ctrl @ 1000 nM", "setting": "FLT3 (ITD, F691L)", "result": 86, "unit": "%"},
      {"measurement": "remaining activity at 1 µM", "setting": "TLK1", "result": 100, "unit": "%"},
      {"measurement": "remaining activity at 1 µM", "setting": "ERN1", "result": 78, "unit": "%"},
      {"measurement": "remaining activity at 1 µM", "setting": "CDK11", "result": 0, "unit": "%"},
      {"measurement": "remaining activity at 1 µM", "setting": "MEK5", "result": 6.2, "unit": "%"},
      {"measurement": "remaining activity at 1 µM", "setting": "MAP3K15", "result": 99, "unit": "%"},
      {"measurement": "remaining activity at 1 µM", "setting": "ROS1", "result": 63, "unit": "%"},
      {"measurement": "remaining activity at 1 µM", "setting": "TLK2", "result": 100, "unit": "%"},
      {"measurement": "remaining activity at 1 µM", "setting": "HIPK1", "result": 96, "unit": "%"},
      {"measurement": "remaining activity at 1 µM", "setting": "[3]", "result": 100, "unit": "%"},
      {"measurement": "remaining activity at 1 µM", "setting": "CSF1R-autoinhibited", "result": 60, "unit": "%"},
      {"measurement": "remaining activity at 1 µM", "setting": "YANK3", "result": 88, "unit": "%"},
      {"measurement": "remaining activity at 1 µM", "setting": "PKN2", "result": 100, "unit": "%"},
      {"measurement": "remaining activity at 1 µM", "setting": "[4]", "result": 97, "unit": "%"},
      {"measurement": "remaining activity at 1 µM", "setting": "EPHA4", "result": 49, "unit": "%"},
      {"measurement": "remaining activity at 1 µM", "setting": "AURKB", "result": 49, "unit": "%"},
      {"measurement": "remaining activity at 1 µM", "setting": "NEK11", "result": 100, "unit": "%"},
      {"measurement": "remaining activity at 1 µM", "setting": "EGFR (L858R)", "result": 87, "unit": "%"},
      {"measurement": "remaining activity at 1 µM", "setting": "[5]", "result": 82, "unit": "%"},
      {"measurement": "remaining activity at 1 µM", "setting": "[6]", "result": 70, "unit": "%"}
    ]}
  ]
}
